Data as given in ChEMBL document CHEMBL1201862, “PubChem BioAssay data set” (2004).
Active and inactive are the calls of the source.

Legend:
[1] = molecular target: T1, Carboxy-terminal domain RNA polymerase II polypeptide A small phosphatase 1 (Homo sapiens, UniProt Q9GZU7); experiment: CTDSP1 inhibitors, concentration-response, biochemical, absorbance readout, ultra-high-throughput screen actives (AID 540297); format: functional
T1 sequence (Q9GZU7 whole entry): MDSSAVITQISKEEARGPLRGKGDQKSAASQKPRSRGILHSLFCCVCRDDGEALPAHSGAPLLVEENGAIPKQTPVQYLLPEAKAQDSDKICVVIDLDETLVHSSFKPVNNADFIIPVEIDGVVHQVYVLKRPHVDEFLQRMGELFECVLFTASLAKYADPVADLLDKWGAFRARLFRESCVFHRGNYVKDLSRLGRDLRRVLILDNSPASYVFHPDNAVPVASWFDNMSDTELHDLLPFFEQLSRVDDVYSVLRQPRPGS

[2] = molecular target: T2, Tyrosine-protein phosphatase non-receptor type 11 (Homo sapiens, UniProt Q06124); experiment: PTPN11 enzyme inhibitors – biochemical, selectivity assay for STEP inhibitor project, dose response (AID 602367); format: functional; conditions: read-out: IC50_Mean
T2 sequence (Q06124 whole entry): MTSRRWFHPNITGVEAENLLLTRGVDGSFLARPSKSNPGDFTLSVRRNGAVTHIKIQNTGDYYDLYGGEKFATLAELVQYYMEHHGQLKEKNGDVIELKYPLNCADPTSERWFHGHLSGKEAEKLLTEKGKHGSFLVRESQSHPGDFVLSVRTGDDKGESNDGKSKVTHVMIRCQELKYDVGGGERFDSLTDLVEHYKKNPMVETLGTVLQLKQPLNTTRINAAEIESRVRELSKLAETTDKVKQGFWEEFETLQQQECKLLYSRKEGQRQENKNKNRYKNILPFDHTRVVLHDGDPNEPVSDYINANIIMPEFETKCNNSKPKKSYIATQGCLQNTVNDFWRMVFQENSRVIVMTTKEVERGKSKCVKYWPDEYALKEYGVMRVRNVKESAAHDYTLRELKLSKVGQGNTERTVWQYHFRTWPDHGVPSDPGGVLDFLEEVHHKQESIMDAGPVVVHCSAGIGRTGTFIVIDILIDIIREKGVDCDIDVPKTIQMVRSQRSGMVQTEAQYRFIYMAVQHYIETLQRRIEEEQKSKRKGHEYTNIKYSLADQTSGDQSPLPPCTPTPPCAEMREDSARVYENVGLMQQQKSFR

[3] = molecular target: Dual specificity protein phosphatase 3 (Homo sapiens, UniProt P51452); experiment: VHR phosphatase inhibition, dose response, selectivity assay for STEP inhibitor project, biochemical (AID 602374); format: functional; conditions: read-out: IC50_Mean
[4] = molecular target: T3, Tyrosine-protein phosphatase non-receptor type 5 (Homo sapiens, UniProt P54829); experiment: PTPN5 enzyme inhibition – biochemical, fluorescence intensity, uHTS hits, confirmation (AID 602372); format: functional; conditions: read-out: IC50_Mean
T3 sequence (P54829 whole entry): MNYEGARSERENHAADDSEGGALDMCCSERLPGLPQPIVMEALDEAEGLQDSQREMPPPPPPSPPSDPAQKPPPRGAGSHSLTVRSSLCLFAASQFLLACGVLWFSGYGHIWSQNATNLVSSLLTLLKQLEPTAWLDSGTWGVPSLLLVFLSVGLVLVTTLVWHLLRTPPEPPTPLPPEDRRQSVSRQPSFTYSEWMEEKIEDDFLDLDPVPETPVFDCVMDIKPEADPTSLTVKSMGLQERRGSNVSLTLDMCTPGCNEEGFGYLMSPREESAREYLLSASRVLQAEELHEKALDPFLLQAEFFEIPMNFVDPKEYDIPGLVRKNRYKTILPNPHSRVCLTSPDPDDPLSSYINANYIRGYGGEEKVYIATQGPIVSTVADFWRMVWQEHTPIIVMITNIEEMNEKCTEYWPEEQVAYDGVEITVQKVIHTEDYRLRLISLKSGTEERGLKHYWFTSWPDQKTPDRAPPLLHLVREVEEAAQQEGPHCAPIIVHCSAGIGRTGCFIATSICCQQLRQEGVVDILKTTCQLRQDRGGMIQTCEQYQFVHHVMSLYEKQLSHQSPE

[5] = molecular target: T4, Replicative DNA helicase DnaB (Mycobacterium tuberculosis, UniProt P9WMR3); experiment: DnaB intein splicing inhibitors, dose response, biochemical, cell-free fluorescence (AID 449749); format: functional
T4 sequence (P9WMR3 whole entry): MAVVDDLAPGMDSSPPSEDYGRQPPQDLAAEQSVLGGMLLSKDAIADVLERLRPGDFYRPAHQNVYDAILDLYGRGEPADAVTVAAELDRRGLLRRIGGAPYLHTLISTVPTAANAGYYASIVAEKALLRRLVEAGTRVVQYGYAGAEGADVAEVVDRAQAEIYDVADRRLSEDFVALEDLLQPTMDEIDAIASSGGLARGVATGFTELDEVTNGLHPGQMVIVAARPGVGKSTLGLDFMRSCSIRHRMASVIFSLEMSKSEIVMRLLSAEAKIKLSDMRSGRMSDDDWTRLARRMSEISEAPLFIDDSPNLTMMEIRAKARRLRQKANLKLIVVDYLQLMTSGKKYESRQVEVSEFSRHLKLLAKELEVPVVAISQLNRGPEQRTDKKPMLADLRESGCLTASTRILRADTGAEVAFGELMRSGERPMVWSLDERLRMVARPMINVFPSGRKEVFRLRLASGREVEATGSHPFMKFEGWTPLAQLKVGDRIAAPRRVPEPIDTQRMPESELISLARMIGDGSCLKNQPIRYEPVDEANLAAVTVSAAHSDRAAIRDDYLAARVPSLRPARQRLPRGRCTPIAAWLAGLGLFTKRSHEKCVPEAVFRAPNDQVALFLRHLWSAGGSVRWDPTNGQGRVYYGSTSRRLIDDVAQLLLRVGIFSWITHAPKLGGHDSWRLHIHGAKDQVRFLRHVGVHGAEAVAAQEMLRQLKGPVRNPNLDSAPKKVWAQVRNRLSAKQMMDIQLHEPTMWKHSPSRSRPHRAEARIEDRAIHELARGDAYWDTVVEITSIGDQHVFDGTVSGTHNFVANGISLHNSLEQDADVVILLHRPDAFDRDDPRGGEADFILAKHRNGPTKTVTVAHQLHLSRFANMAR

[6] = molecular target: T5, Protein RecA (Mycobacterium tuberculosis, UniProt P9WHJ3); experiment: Fluorescence Cell-Free Homogeneous Dose Retest to Identify Inhibitors of RecA-Intein Splicing Activity. [Related pubchem assays (depositor defined):AID2097, AID2223, AID489010, AID492950]; format: functional
T5 sequence (P9WHJ3 whole entry): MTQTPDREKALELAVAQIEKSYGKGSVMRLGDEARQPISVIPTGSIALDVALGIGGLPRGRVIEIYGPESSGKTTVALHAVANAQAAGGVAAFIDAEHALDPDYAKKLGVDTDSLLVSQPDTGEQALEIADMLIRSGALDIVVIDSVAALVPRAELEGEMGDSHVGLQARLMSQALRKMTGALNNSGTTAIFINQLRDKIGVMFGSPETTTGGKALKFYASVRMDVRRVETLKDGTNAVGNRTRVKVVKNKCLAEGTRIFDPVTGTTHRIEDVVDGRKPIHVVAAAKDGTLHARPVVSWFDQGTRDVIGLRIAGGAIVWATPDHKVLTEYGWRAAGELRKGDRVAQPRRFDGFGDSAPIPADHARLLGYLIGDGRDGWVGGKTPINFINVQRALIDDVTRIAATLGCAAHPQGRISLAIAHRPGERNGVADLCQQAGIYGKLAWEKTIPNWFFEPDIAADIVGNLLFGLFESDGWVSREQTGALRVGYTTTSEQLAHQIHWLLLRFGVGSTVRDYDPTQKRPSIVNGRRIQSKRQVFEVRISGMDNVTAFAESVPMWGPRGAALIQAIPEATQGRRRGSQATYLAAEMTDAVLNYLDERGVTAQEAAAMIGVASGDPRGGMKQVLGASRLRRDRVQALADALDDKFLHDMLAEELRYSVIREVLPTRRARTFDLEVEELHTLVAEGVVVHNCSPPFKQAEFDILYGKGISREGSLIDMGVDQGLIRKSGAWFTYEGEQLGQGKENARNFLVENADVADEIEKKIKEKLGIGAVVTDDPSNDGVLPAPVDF

[7] = molecular target: T6, Caspase-6 (Homo sapiens, UniProt P55212); experiment: inhibition of CASP6 peptide cleavage – biochemical, VEID-R110 fluorescence, cherry-pick, dose response (AID 720632)
T6 sequence (P55212 whole entry): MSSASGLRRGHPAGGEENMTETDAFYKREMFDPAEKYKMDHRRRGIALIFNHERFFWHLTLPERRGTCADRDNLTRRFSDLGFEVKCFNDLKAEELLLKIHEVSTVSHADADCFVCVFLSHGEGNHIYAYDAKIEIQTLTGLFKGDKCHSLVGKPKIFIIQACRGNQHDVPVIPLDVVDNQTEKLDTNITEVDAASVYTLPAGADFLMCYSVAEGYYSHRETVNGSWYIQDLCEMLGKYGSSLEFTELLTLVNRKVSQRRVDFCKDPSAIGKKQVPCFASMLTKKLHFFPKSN

[8] = molecular target: T7, Apoptotic protease-activating factor 1 (Homo sapiens, UniProt O14727); format: functional
T7 sequence (O14727 whole entry): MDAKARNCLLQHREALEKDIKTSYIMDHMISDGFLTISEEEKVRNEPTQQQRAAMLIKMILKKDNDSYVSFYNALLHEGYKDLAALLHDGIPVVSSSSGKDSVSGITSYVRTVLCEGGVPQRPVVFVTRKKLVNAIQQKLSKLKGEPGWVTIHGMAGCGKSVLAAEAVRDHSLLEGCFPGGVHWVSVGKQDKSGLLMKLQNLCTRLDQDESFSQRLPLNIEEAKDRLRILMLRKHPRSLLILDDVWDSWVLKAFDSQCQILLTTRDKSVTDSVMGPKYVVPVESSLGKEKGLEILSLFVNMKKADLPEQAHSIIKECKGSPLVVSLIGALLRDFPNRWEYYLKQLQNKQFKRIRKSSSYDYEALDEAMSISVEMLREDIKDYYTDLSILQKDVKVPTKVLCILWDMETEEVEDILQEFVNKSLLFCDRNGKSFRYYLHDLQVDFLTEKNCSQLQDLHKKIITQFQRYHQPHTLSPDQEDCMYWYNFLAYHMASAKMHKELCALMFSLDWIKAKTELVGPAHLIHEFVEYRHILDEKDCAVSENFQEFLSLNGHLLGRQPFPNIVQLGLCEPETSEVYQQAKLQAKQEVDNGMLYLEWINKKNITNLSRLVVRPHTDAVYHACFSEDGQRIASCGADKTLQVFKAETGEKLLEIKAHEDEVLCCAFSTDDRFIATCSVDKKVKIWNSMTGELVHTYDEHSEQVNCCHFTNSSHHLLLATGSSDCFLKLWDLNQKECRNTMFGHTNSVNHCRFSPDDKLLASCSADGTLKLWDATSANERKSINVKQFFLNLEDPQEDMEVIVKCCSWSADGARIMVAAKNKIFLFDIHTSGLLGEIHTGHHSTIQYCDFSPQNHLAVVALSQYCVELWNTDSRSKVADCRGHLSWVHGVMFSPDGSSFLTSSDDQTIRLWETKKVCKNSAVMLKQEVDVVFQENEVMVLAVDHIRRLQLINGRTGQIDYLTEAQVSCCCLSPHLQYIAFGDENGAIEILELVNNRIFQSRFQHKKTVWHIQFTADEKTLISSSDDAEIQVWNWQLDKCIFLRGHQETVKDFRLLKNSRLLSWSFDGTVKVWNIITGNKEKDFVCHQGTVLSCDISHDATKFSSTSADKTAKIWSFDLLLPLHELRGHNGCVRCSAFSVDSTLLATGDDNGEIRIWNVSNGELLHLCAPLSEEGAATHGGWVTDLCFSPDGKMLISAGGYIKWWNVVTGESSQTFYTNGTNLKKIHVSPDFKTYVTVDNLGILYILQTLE

[9] = molecular target: T8, Tyrosyl-DNA phosphodiesterase 2 (Homo sapiens, UniProt O95551); experiment: potency against TDP2 phosphodiesterase activity – biochemical, epi absorbance, IC50, dose response (AID 743297)
T8 sequence (O95551 whole entry): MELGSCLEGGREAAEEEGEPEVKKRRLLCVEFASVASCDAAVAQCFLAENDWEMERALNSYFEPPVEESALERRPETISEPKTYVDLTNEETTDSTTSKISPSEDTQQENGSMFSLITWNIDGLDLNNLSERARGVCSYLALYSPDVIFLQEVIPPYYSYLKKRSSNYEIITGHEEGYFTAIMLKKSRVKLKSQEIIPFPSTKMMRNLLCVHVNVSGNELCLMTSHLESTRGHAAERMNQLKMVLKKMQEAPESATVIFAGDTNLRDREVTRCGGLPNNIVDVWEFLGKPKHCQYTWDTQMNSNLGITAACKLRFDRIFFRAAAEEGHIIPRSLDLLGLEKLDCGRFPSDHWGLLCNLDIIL

Chain of Dual specificity protein phosphatase 3 (P51452 whole entry): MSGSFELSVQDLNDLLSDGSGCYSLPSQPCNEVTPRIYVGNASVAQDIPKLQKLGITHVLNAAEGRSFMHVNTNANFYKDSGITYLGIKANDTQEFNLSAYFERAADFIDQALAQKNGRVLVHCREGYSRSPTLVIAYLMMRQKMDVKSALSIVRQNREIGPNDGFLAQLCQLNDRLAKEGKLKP

Structure (SMILES) | IC50 [1] | IC50 [2] | IC50 [3] | IC50 [4] | AC50 [5] | EC50 [6] | AC50 [7] | IC50 [8] | IC50 [9]
Cc1c(CC(=O)NCCCCCC(=O)O)c(=O)oc2c(C)c3oc4c(c3cc12)CCCC4 | 4.72 µM (active) | 5.36 µM (active) | 3.9 µM (active) | 36.4 µM (inactive) | – | – | – | – | –
COc1ccc(NC2=C(NCCO)C(=O)c3ccccc3C2=O)cc1 | – | – | – | – | 31.4 µM (active) | 21.9 µM (active) | 6.05 µM (active) | 29.4 µM (active) | 88.7 µM (inactive)
